Laboratory results as given in ChEMBL document CHEMBL1147416, “Aza-bicyclic amino acid sulfonamides as alpha(4)beta(1)/alpha(4)beta(7) integrin antagonists” (Bioorg Med Chem Lett, 2004).

target: Integrin alpha-4/beta-1 (Homo sapiens, UniProt P05556+P13612); assay: In vitro inhibition of binding of integrin alpha4-beta1 to immobilized VCAM-1 expressed on endothelial cell surface.; format: functional, cell-based
Sequence (P05556 whole entry): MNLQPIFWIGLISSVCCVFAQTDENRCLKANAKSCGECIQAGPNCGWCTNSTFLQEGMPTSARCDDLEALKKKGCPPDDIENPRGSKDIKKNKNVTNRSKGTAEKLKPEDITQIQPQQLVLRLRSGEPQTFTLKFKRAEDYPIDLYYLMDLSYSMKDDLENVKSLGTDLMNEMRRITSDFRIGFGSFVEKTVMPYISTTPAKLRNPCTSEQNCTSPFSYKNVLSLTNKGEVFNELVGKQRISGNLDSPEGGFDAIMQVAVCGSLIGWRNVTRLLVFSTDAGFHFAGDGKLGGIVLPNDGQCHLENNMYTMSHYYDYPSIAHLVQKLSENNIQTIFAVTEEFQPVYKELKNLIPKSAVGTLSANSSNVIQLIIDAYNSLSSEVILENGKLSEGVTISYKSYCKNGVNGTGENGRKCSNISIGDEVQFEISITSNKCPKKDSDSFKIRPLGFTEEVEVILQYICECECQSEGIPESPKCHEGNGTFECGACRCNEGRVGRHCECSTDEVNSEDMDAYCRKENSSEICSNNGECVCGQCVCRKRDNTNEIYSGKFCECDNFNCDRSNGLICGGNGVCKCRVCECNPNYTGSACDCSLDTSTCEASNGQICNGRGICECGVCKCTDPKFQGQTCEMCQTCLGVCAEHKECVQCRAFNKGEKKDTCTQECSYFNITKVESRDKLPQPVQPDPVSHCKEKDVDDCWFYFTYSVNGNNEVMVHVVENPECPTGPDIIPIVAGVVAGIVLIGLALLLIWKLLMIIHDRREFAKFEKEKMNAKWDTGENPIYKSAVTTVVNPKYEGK
Sequence (P13612 whole entry): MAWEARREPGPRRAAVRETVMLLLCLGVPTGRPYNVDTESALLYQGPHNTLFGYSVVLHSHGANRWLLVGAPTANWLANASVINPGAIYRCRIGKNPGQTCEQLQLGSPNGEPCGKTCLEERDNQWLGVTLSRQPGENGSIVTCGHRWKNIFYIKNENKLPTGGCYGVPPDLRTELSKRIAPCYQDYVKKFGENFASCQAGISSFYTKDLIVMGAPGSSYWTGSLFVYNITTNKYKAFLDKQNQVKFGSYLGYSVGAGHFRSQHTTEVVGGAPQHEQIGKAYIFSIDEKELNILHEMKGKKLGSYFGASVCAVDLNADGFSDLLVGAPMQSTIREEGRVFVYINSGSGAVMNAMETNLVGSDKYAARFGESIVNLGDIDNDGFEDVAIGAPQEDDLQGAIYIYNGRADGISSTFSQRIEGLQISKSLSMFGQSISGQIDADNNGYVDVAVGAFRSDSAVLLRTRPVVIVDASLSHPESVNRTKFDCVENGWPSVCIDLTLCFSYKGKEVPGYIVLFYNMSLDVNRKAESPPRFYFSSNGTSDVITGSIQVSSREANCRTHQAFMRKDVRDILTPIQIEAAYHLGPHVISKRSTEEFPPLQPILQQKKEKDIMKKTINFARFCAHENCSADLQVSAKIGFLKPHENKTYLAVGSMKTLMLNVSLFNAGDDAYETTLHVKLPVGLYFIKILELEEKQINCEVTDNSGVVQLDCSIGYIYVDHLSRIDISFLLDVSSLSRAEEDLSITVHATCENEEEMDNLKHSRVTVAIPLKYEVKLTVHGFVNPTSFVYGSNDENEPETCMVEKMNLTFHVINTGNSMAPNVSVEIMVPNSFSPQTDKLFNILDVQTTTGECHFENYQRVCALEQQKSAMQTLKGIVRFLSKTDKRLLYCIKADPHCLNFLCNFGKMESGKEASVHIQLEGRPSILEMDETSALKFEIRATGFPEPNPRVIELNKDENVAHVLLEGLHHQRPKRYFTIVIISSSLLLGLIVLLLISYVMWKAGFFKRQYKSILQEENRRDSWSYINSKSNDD

With `O=C(Nc1ccc(C[C@H](NC(=O)[C@@H]2C3CCC(CC3)N2S(=O)(=O)c2cccc3cccnc23)C(=O)O)cc1)c1cc(Cl)nc(Cl)c1` as the compound, how does the IC50 read?
The IC50 was 0.15 µM.

Which IC50 does the source give for `O=C(Nc1ccc(C[C@H](NC(=O)[C@@H]2C3CCC(CC3)N2S(=O)(=O)c2ccccc2)C(=O)O)cc1)c1ccncc1` here?
Its IC50 is 0.036 µM.

For `O=C(Nc1ccc(C[C@H](NC(=O)C2C3CCC(CC3)N2S(=O)(=O)c2c(Cl)cccc2Cl)C(=O)O)cc1)c1cc(Cl)nc(Cl)c1` (some centres undefined), which IC50 is on record?
The IC50 was 0.105 µM.

For `O=C(Nc1ccc(C[C@H](NC(=O)[C@@H]2C3CCC(CC3)N2S(=O)(=O)c2ccccc2)C(=O)O)cc1)c1c(Cl)cccc1Cl`, which IC50 is on record?
The IC50 was 0.019 µM.

Which IC50 does the source give for `O=C(Nc1ccc(C[C@H](NC(=O)[C@@H]2C3CCC(CC3)N2S(=O)(=O)c2ccccc2)C(=O)O)cc1)c1cc(Cl)nc(Cl)c1` here?
The IC50 was 0.012 µM.

Which IC50 does the source give for `O=C(Nc1ccc(C[C@H](NC(=O)[C@@H]2C3CCC(CC3)N2S(=O)(=O)c2cccc3ccncc23)C(=O)O)cc1)c1cc(Cl)nc(Cl)c1` here?
The IC50 was 0.012 µM.

With `O=C(Nc1ccc(C[C@H](NC(=O)[C@H]2C3CCC(CC3)N2S(=O)(=O)c2ccccc2)C(=O)O)cc1)c1c(Cl)cccc1Cl` as the compound, how does the IC50 read?
The IC50 was 1.6 µM.

With `COc1cccc(OC)c1-c1ccc(C[C@H](NC(=O)[C@@H]2C[C@@H](c3ccccc3)CN2S(=O)(=O)c2ccccc2)C(=O)O)cc1` as the compound, how does the IC50 read?
Its IC50 is 0.03 µM.

Which IC50 does the source give for `Cc1ccc(S(=O)(=O)N2C3CCC(CC3)C2C(=O)N[C@@H](Cc2ccc(NC(=O)Nc3c(Cl)cccc3Cl)cc2)C(=O)O)cc1` (some centres undefined) here?
The IC50 was 1.6 µM.

Which IC50 does the source give for `O=C(Nc1ccc(C[C@H](NC(=O)C2C3CCC(CC3)N2S(=O)(=O)c2cc(Cl)c(Cl)s2)C(=O)O)cc1)c1cc(Cl)nc(Cl)c1` (some centres undefined) here?
The IC50 was 0.069 µM.

With `CC(=O)N1CSC[C@@H]1C(=O)N[C@@H](Cc1ccc(OCc2c(Cl)cccc2Cl)cc1)C(=O)O` as the compound, how does the IC50 read?
The IC50 was 0.41 µM.

Which IC50 does the source give for `O=C(Nc1ccc(C[C@H](NC(=O)C2C3CCC(CC3)N2S(=O)(=O)c2ccc(Cl)s2)C(=O)O)cc1)c1cc(Cl)nc(Cl)c1` (some centres undefined) here?
Its IC50 is 0.011 µM.

With `O=C(Nc1ccc(C[C@H](NC(=O)[C@@H]2C3CCC(CC3)N2S(=O)(=O)c2cccs2)C(=O)O)cc1)c1c(Cl)cccc1Cl` as the compound, how does the IC50 read?
The IC50 was 0.03 µM.

For `O=C(Nc1ccc(C[C@H](NC(=O)C2C3CCC(CC3)N2S(=O)(=O)c2ccccc2C(F)(F)F)C(=O)O)cc1)c1cc(Cl)nc(Cl)c1` (some centres undefined), which IC50 is on record?
The IC50 was 0.081 µM.

For `O=C(Nc1ccc(C[C@H](NC(=O)[C@@H]2C3CCC(CC3)N2S(=O)(=O)c2cccs2)C(=O)O)cc1)c1cc(Cl)nc(Cl)c1`, which IC50 is on record?
Its IC50 is 0.005 µM.

test system: not listed separately; assay: In vitro inhibition of binding of integrin alpha4-beta7 to immobilized MAdCAM-1 expressed on epithelial cell surface.; format: functional, cell-based

Which IC50 does the source give for `O=C(Nc1ccc(C[C@H](NC(=O)[C@@H]2C3CCC(CC3)N2S(=O)(=O)c2cccc3cccnc23)C(=O)O)cc1)c1cc(Cl)nc(Cl)c1` here?
The IC50 was 0.151 µM.

For `O=C(Nc1ccc(C[C@H](NC(=O)[C@@H]2C3CCC(CC3)N2S(=O)(=O)c2ccccc2)C(=O)O)cc1)c1ccncc1`, which IC50 is on record?
The IC50 was 0.175 µM.

Which IC50 does the source give for `COc1cccc(OC)c1-c1ccc(C[C@H](NC(=O)[C@@H]2C3CCC(CC3)N2S(=O)(=O)c2ccccc2)C(=O)O)cc1` here?
Its IC50 is 0.09 µM.

Which IC50 does the source give for `O=C(Nc1ccc(C[C@H](NC(=O)C2C3CCC(CC3)N2S(=O)(=O)c2c(Cl)cccc2Cl)C(=O)O)cc1)c1cc(Cl)nc(Cl)c1` (some centres undefined) here?
Its IC50 is 0.011 µM.

For `O=C(Nc1ccc(C[C@H](NC(=O)[C@@H]2C3CCC(CC3)N2S(=O)(=O)c2ccccc2)C(=O)O)cc1)c1c(Cl)cccc1Cl`, which IC50 is on record?
The IC50 was 0.094 µM.

Which IC50 does the source give for `O=C(Nc1ccc(C[C@H](NC(=O)[C@@H]2C3CCC(CC3)N2S(=O)(=O)c2ccccc2)C(=O)O)cc1)c1cc(Cl)nc(Cl)c1` here?
Its IC50 is 0.013 µM.

Which IC50 does the source give for `O=C(Nc1ccc(C[C@H](NC(=O)[C@@H]2C3CCC(CC3)N2S(=O)(=O)c2cccc3ccncc23)C(=O)O)cc1)c1cc(Cl)nc(Cl)c1` here?
Its IC50 is 0.022 µM.

For `Cc1ccc(S(=O)(=O)N2C3CCC(CC3)C2C(=O)N[C@@H](Cc2ccc(NC(=O)c3c(Cl)cccc3Cl)cc2)C(=O)O)cc1` (some centres undefined), which IC50 is on record?
Its IC50 is 0.32 µM.

With `Cc1ccc(S(=O)(=O)N2C3CCC(CC3)C2C(=O)N[C@@H](Cc2ccc(NC(=O)c3c(Cl)cc(Cl)cc3Cl)cc2)C(=O)O)cc1` (some centres undefined) as the compound, how does the IC50 read?
The IC50 was 0.43 µM.

Which IC50 does the source give for `COc1cccc(OC)c1-c1ccc(C[C@H](NC(=O)[C@@H]2C[C@@H](c3ccccc3)CN2S(=O)(=O)c2ccccc2)C(=O)O)cc1` here?
Its IC50 is 0.119 µM.

With `O=C(Nc1ccc(C[C@H](NC(=O)C2C3CCC(CC3)N2S(=O)(=O)c2cc(Cl)c(Cl)s2)C(=O)O)cc1)c1cc(Cl)nc(Cl)c1` (some centres undefined) as the compound, how does the IC50 read?
Its IC50 is 0.014 µM.

For `CC(=O)N1CSC[C@@H]1C(=O)N[C@@H](Cc1ccc(OCc2c(Cl)cccc2Cl)cc1)C(=O)O`, which IC50 is on record?
The IC50 was 0.09 µM.

For `O=C(Nc1ccc(C[C@H](NC(=O)C2C3CCC(CC3)N2S(=O)(=O)c2ccc(Cl)s2)C(=O)O)cc1)c1cc(Cl)nc(Cl)c1` (some centres undefined), which IC50 is on record?
The IC50 was 0.064 µM.

With `O=C(Nc1ccc(C[C@H](NC(=O)[C@@H]2C3CCC(CC3)N2S(=O)(=O)c2cccs2)C(=O)O)cc1)c1c(Cl)cccc1Cl` as the compound, how does the IC50 read?
The IC50 was 0.062 µM.

With `O=C(Nc1ccc(C[C@H](NC(=O)C2C3CCC(CC3)N2S(=O)(=O)c2ccccc2C(F)(F)F)C(=O)O)cc1)c1cc(Cl)nc(Cl)c1` (some centres undefined) as the compound, how does the IC50 read?
Its IC50 is 0.102 µM.

Which IC50 does the source give for `O=C(Nc1ccc(C[C@H](NC(=O)[C@@H]2C3CCC(CC3)N2S(=O)(=O)c2cccs2)C(=O)O)cc1)c1cc(Cl)nc(Cl)c1` here?
The IC50 was 0.032 µM.

With `O=C(O)[C@H](Cc1ccc(N2C(=O)c3ccccc3C2=O)cc1)NC(=O)[C@@H]1C2CCC(CC2)N1S(=O)(=O)c1ccccc1` as the compound, how does the IC50 read?
Its IC50 is 0.312 µM.

test system: not listed separately; assay: Inhibition of integrin alpha4-beta7 binding to immobilized MAdCAM-1 (mucosal addressin cell adhesion molecule-1) of epithelial cells at 5 uM; format: functional

Which inhibition at 5 µM does the source give for `Cc1ccc(S(=O)(=O)N2C3CCC(CC3)C2C(=O)N[C@@H](Cc2ccc(NC(=O)Cc3c(Cl)cccc3Cl)cc2)C(=O)O)cc1` (some centres undefined) here?
The inhibition at 5 µM was 28%.

For `Cc1ccc(S(=O)(=O)N2C3CCC(CC3)C2C(=O)N[C@@H](Cc2ccc(NC(=O)c3ccccc3)cc2)C(=O)O)cc1` (some centres undefined), which inhibition at 5 µM is on record?
Its inhibition at 5 µM is 30%.
